Results: patent US4740233A, “Substituted 1,2,4-triazolo[1,5-a]-pyrimidine-2-sulfonamides and compositions and methods of controlling undesired vegetation and suppressing the nitrification of ammonium nitrogen in soil” (The Dow Chemical Company, priority 1986, dated 1988)

Columns and labels:
barnyardgrass [1] = experiment: Postemergent control of plant species; format: in vivo, Echinochloa crusgalli; conditions: Echinochloa crus-galli, post-emergence, 336 h, read-out: percent postemergent control
How it was run: (§1)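 Spray emulsion: acetone stock at twice final concentration plus equal volume water with 0.1% wetting agent, applied to separated greenhouse beds at 2-4 leaf stage. Assessed at ~two weeks; score reflects growth reduction compared with untreated plants.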

corn [2] = experiment: Postemergent control of plant species; format: in vivo, Zea mays; conditions: Zea mays, post-emergence, 336 h, read-out: percent postemergent control
How it was run: as §1

sorghum [3] = experiment: Postemergent control of plant species; format: in vivo, Sorghum vulgare; conditions: Sorghum, post-emergence, 336 h, read-out: percent postemergent control
How it was run: as §1

jimsonweed [4] = experiment: Postemergent control of plant species; format: in vivo, Datura stramonium; conditions: Datura stramonium, post-emergence, 336 h, read-out: percent postemergent control
How it was run: as §1

johnson grass [5] = experiment: Postemergent control of plant species; format: in vivo, Sorghum halepense; conditions: Sorghum halepense, post-emergence, 336 h, read-out: percent postemergent control
How it was run: as §1

soybean [6] = experiment: Postemergent control of plant species; format: in vivo, Glycine max.; conditions: Glycine max, post-emergence, 336 h, read-out: percent postemergent control
How it was run: as §1

yellow nutsedge [7] = experiment: Postemergent control of plant species; format: in vivo, Cyperus esculentus; conditions: Cyperus, post-emergence, 336 h, read-out: percent postemergent control
How it was run: as §1

rape [8] = experiment: Postemergent control of plant species; format: in vivo, Brassica napus; conditions: Brassica napus, post-emergence, 336 h, read-out: percent postemergent control
How it was run: as §1

velvetleaf [9] = experiment: Postemergent control of plant species; format: in vivo, Abutilon theophrasti; conditions: Abutilon theophrasti, post-emergence, 336 h, read-out: percent postemergent control
How it was run: as §1

wheat [10] = experiment: Postemergent control of plant species; format: in vivo, Triticum aestivum; conditions: Triticum aestivum, post-emergence, 336 h, read-out: percent postemergent control
How it was run: as §1

yellow foxtail [11] = experiment: Postemergent control of plant species; format: in vivo, Setaria lutescens; conditions: Setaria, post-emergence, 336 h, read-out: percent postemergent control
How it was run: as §1

annual morning glory [12] = experiment: Postemergent control of plant species; format: in vivo, Ipomoea spp.; conditions: Ipomoea, post-emergence, 336 h, read-out: percent postemergent control
How it was run: as §1

cotton [13] = experiment: Postemergent control of plant species; format: in vivo, Gossypium spp.; conditions: Gossypium hirsutum, post-emergence, 336 h, read-out: percent postemergent control
How it was run: as §1

cocklebur = experiment: Postemergent control of plant species; format: in vivo, Xanthium spp.; conditions: Xanthium strumarium, post-emergence, 336 h, read-out: percent postemergent control
Procedure: In representative operations, each compound to be utilized in a series of tests is dissolved in acetone to one-half of the final volume (twice the final concentration) to be used and the acetone solution in each case is admixed with an equal volume of water containing 0.1 percent by weight of surface active material. The compositions, generally in the nature of an emulsion, were employed to spray separate respective plant species which had been grown to a 2-4 leaf stage in soil of good nutrient content in a greenhouse. The various beds were positioned side by side and exposed to substantially identical conditions of temperature and light. Each bed was maintained so as to prevent any interaction with test compounds in different seed beds. Other plants were left untreated to serve as controls. After treatment, the plants were maintained for about two weeks under greenhouse conditions conducive for good plant growth and watered as necessary. Control refers to the reduction in growth compared to the observed results of the same untreated species.

wild oats [14] = experiment: Postemergent control of plant species; format: in vivo, Avena fatua; conditions: Avena fatua, post-emergence, 336 h, read-out: percent postemergent control
How it was run: as §1

pigweed = experiment: Postemergent control of plant species; format: in vivo, Amaranthus spp.; conditions: Amaranthus retroflexus, post-emergence, 336 h, read-out: percent postemergent control
How it was run: as §1

rice [15] = experiment: Postemergent control of plant species; format: in vivo, Oryza sativa; conditions: Oryza sativa, post-emergence, 336 h, read-out: percent postemergent control
How it was run: as §1

sugar beet [16] = experiment: Postemergent control of plant species; format: in vivo, Beta saccharifera; conditions: Beta vulgaris, post-emergence, 336 h, read-out: percent postemergent control
How it was run: as §1

crabgrass = experiment: Postemergent control of plant species; format: in vivo, Digitaria spp.; conditions: Digitaria sanguinalis, post-emergence, 336 h, read-out: percent postemergent control
How it was run: as §1

[17] = tested on: nitrification of ammonium nitrogen; experiment: Suppression of nitrification of ammonium nitrogen in soil; conditions: 27° C.
How it was run: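 Value is % NH4-N remaining after a two-week, 27° C incubation of treated soil held at 1/3 bar tension moisture. Nitrate was measured with an ion-selective electrode after extraction with ammonium sulfate solution and 10 min shaking.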

rape [18] = experiment: Preemergent control of plant species; format: in vivo, Brassica napus; conditions: Brassica napus, pre-emergence, 336 h; 0.25 lb/acre; read-out: percent preemergent control
How it was run: (§2)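 Test compositions were applied evenly to the surface of freshly seeded soil beds and kept under greenhouse conditions for two weeks. Percent control reflects growth reduction compared with water-treated beds of the same species.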

barnyardgrass [19] = experiment: Preemergent control of plant species; format: in vivo, Echinochloa crusgalli; conditions: Echinochloa crus-galli, pre-emergence, 336 h; 0.25 lb/acre; read-out: percent preemergent control
How it was run: as §2

rice [20] = experiment: Preemergent control of plant species; format: in vivo, Oryza sativa; conditions: Oryza sativa, pre-emergence, 336 h; 0.25 lb/acre; read-out: percent preemergent control
How it was run: as §2

velvetleaf [21] = experiment: Preemergent control of plant species; format: in vivo, Abutilon theophrasti; conditions: Abutilon theophrasti, pre-emergence, 336 h; 0.25 lb/acre; read-out: percent preemergent control
How it was run: as §2

jimsonweed [22] = experiment: Preemergent control of plant species; format: in vivo, Datura stramonium; conditions: Datura stramonium, pre-emergence, 336 h; 0.25 lb/acre; read-out: percent preemergent control
How it was run: as §2

cotton [23] = experiment: Preemergent control of plant species; format: in vivo, Gossypium spp.; conditions: Gossypium hirsutum, pre-emergence, 336 h; 0.25 lb/acre; read-out: percent preemergent control
How it was run: as §2

annual morning glory [24] = experiment: Preemergent control of plant species; format: in vivo, Ipomoea spp.; conditions: Ipomoea, pre-emergence, 336 h; 0.25 lb/acre; read-out: percent preemergent control
How it was run: as §2

yellow foxtail [25] = experiment: Preemergent control of plant species; format: in vivo, Setaria lutescens; conditions: Setaria, pre-emergence, 336 h; 0.25 lb/acre; read-out: percent preemergent control
How it was run: as §2

soybean [26] = experiment: Preemergent control of plant species; format: in vivo, Glycine max.; conditions: Glycine max, pre-emergence, 336 h; 0.25 lb/acre; read-out: percent preemergent control
How it was run: as §2

sugar beet [27] = experiment: Preemergent control of plant species; format: in vivo, Beta saccharifera; conditions: Beta vulgaris, pre-emergence, 336 h; 0.25 lb/acre; read-out: percent preemergent control
How it was run: as §2

wheat [28] = experiment: Preemergent control of plant species; format: in vivo, Triticum aestivum; conditions: Triticum aestivum, pre-emergence, 336 h; 0.25 lb/acre; read-out: percent preemergent control
How it was run: as §2

sorghum [29] = experiment: Preemergent control of plant species; format: in vivo, Sorghum vulgare; conditions: Sorghum, pre-emergence, 336 h; 0.25 lb/acre; read-out: percent preemergent control
How it was run: as §2

johnson grass [30] = experiment: Preemergent control of plant species; format: in vivo, Sorghum halepense; conditions: Sorghum halepense, pre-emergence, 336 h; 0.25 lb/acre; read-out: percent preemergent control
How it was run: as §2

yellow nutsedge [31] = experiment: Preemergent control of plant species; format: in vivo, Cyperus esculentus; conditions: Cyperus, pre-emergence, 336 h; 0.25 lb/acre; read-out: percent preemergent control
How it was run: as §2

corn [32] = experiment: Preemergent control of plant species; format: in vivo, Zea mays; conditions: Zea mays, pre-emergence, 336 h; 0.25 lb/acre; read-out: percent preemergent control
How it was run: as §2

wild oats [33] = experiment: Preemergent control of plant species; format: in vivo; conditions: Avena fatua, pre-emergence, 336 h; 0.25 lb/acre; read-out: percent preemergent control
How it was run: as §2

| Structure (SMILES) | pest or weed control at 500 ppm (barnyardgrass [1]) | plant injury at 500 ppm (corn [2]) | plant injury at 500 ppm (sorghum [3]) | pest or weed control at 500 ppm (jimsonweed [4]) | pest or weed control at 500 ppm (johnson grass [5]) | plant injury at 500 ppm (soybean [6]) | pest or weed control at 500 ppm (yellow nutsedge [7]) | plant injury at 500 ppm (rape [8]) | pest or weed control at 500 ppm (velvetleaf [9]) | plant injury at 500 ppm (wheat [10]) | pest or weed control at 500 ppm (yellow foxtail [11]) | pest or weed control at 500 ppm (annual morning glory [12]) | plant injury at 500 ppm (cotton [13]) | pest or weed control at 500 ppm (cocklebur) | pest or weed control at 500 ppm (wild oats [14]) | pest or weed control at 500 ppm (pigweed) | plant injury at 500 ppm (rice [15]) | plant injury at 500 ppm (sugar beet [16]) | pest or weed control at 500 ppm (crabgrass) | plant injury at 280.212 g/ha (rape [18]) | other results |
| --- | --- | --- | --- | --- | --- | --- | --- | --- | --- | --- | --- | --- | --- | --- | --- | --- | --- | --- | --- | --- | --- |
| Cc1cc(C)n2nc(S(=O)(=O)Nc3c(F)c(F)cc(F)c3F)nc2n1 [Compound 90] | 0% | 0% | 0% | 70% | 20% | 50% | 0% | 70% | 50% | 0% | 70% | 30% | 0% | 75% | 0% | 100% | 0% |  |  |  |  |
| Cc1nc2nc(S(=O)(=O)Nc3ccccc3[N+](=O)[O-])nn2c2c1CCC2 [Compound 105] | 20% | 80% | 0% | 60% | 0% | 95% | 0% | 40% | 0% | 0% |  | 70% | 35% | 100% | 0% | 60% | 20% | 90% | 0% |  |  |
| O=S(=O)(Nc1ccccc1C(F)(F)F)c1nc2ncc(Cl)cn2n1 [Compound 118] | 0% | 0% | 0% | 100% | 0% | 0% | 70% | 80% | 80% |  | 20% | 70% | 0% | 100% | 0% | 70% | 0% | 100% | 60% |  | % NH4-N Remaining After 2 Weeks Incubation ([17]; 0.06 ppm): 30%; % NH4-N Remaining After 2 Weeks Incubation ([17]; 0.25 ppm): 37%; % NH4-N Remaining After 2 Weeks Incubation ([17]; 1 ppm): 61%; % NH4-N Remaining After 2 Weeks Incubation ([17]; 4 ppm): 85% |
| COc1ccc(Cl)c(NS(=O)(=O)c2nc3nc(C)ccn3n2)c1Cl [Compound 170] | 75% | 25% | 25% | 90% | 85% | 30% | 98% |  | 90% | 0% | 80% | 70% | 50% | 25% | 80% | 100% | 35% | 95% | 60% | 100% | pest or weed control at 280.212 g/ha (barnyardgrass [19]): 40%; plant injury at 280.212 g/ha (rice [20]): 30%; pest or weed control at 280.212 g/ha (velvetleaf [21]): 85%; pest or weed control at 280.212 g/ha (jimsonweed [22]): 0%; plant injury at 280.212 g/ha (cotton [23]): 70%; pest or weed control at 280.212 g/ha (annual morning glory [24]): 30%; pest or weed control at 280.212 g/ha (yellow foxtail [25]): 70%; plant injury at 280.212 g/ha (soybean [26]): 0%; plant injury at 280.212 g/ha (sugar beet [27]): 90%; plant injury at 280.212 g/ha (wheat [28]): 10%; plant injury at 280.212 g/ha (sorghum [29]): 80%; pest or weed control at 280.212 g/ha (johnson grass [30]): 90%; pest or weed control at 280.212 g/ha (yellow nutsedge [31]): 0%; plant injury at 280.212 g/ha (corn [32]): 20% |
| Cc1ccn2nc(S(=O)(=O)N(c3c(F)cccc3F)S(=O)(=O)c3ccccc3)nc2n1 [Compound 298] | 65% | 0% | 40% | 50% | 50% | 0% | 0% | 85% | 80% | 0% | 75% | 50% | 35% | 50% |  | 100% | 40% | 80% | 25% | 100% | pest or weed control at 280.212 g/ha (barnyardgrass [19]): 100%; plant injury at 280.212 g/ha (rice [20]): 95%; pest or weed control at 280.212 g/ha (velvetleaf [21]): 100%; pest or weed control at 280.212 g/ha (jimsonweed [22]): 100%; plant injury at 280.212 g/ha (cotton [23]): 100%; pest or weed control at 280.212 g/ha (annual morning glory [24]): 70%; pest or weed control at 280.212 g/ha (yellow foxtail [25]): 100%; plant injury at 280.212 g/ha (soybean [26]): 0%; plant injury at 280.212 g/ha (sugar beet [27]): 100%; plant injury at 280.212 g/ha (wheat [28]): 50%; plant injury at 280.212 g/ha (sorghum [29]): 95%; pest or weed control at 280.212 g/ha (wild oats [33]): 50%; pest or weed control at 280.212 g/ha (johnson grass [30]): 95%; pest or weed control at 280.212 g/ha (yellow nutsedge [31]): 100%; plant injury at 280.212 g/ha (corn [32]): 40% |
